The subject of assay [1] is A549. In words: Antiproliferative activity against human A549 cells harbouring wild type EGFR incubated for 72 hrs by SRB assay. In kind it is functional, cell-based. The note with it: A549, 72 h. Background: In SRB staining, fixed cells bind dye roughly in proportion to their protein.
Assay [2] has as its system MDA-MB-231. In words: Antiproliferative activity against human MDA-MB-231 cells incubated for 72 hrs by SRB assay. In kind it is functional, cell-based. The note with it: MDA-MB-231, 72 h.
Assay [3] concerns KB. The assay can be described thus: Antiproliferative activity against human KB cells incubated for 72 hrs by SRB assay. Type of assay: functional, cell-based.
Assay [4] can be described thus: Antiproliferative activity against human KB-VIN10 cells incubated for 72 hrs by SRB assay. In kind it is functional, cell-based. The note with it: KB-VIN10, 72 h.
For assay [5], the system named is MCF7. In words: Antiproliferative activity against human MCF7 cells incubated for 72 hrs by SRB assay. The note with it: MCF7, 72 h. In kind it is functional, cell-based.
Assay [6] has as its target Epidermal growth factor receptor (Homo sapiens, UniProt P00533). The assay can be described thus: biochemical. Type of assay: cell-based, Sf9.
Description: Inhibition of C-terminal His-tagged/ N-terminal GST-tagged recombinant human EGFR (668 to 1210 residues) expressed in a Baculovirus infected Sf9 cell expression system using poly-EY as substrate incubated for 30 mins by ADP-Glo kinase assay
In assay [7] the target is Epidermal growth factor receptor (Homo sapiens, UniProt P00533, L858R/T790M). In words: biochemical. In kind it is cell-based, Sf9.
Assay [8] concerns the target Epidermal growth factor receptor (Homo sapiens, UniProt P00533, C797S/L858R/T790M). In words: biochemical. Type of assay: cell-based, Sf9.
Assay [9] has as its system NCI-H1975. The assay can be described thus: Antiproliferative activity against human NCI-H1975 cells incubated for 72 hrs by MTS assay. In kind it is functional, cell-based. The note with it: NCI-H1975, 72 h. In general terms: Tetrazolium dyes change colour on reduction, which living cells bring about.
The test system of assay [10] is NCI-H1975. The assay can be described thus: cells. In kind it is functional, cell-based. The note with it: Homo sapiens, NCI-H1975, 72 h.
Assay [11] has as its system NCI-H1975. The assay can be described thus: Antiproliferative activity against human NCI-H1975 cells assessed as induction of NO production at 100 uM incubated for 150 mins by Griess reagent based assay. In kind it is functional, cell-based. (In general: The Griess reaction detects nitrite, a stable product of nitric oxide.)
For assay [12], the system named is NCI-H1975. The assay can be described thus: Antiproliferative activity against human NCI-H1975 cells assessed as induction of NO production at 25 uM preincubated for 1 hr with hemoglobin followed by compound addition and measured after 48 hrs by Griess reagent based assay. Type of assay: functional, cell-based.

Calls of active or inactive are those of the source. The rule behind the calls is not given here.

Sequence of Epidermal growth factor receptor (Homo sapiens, UniProt P00533, C797S/L858R/T790M) (P00533 25-1210 T790M/C797S/L858R limits assumed): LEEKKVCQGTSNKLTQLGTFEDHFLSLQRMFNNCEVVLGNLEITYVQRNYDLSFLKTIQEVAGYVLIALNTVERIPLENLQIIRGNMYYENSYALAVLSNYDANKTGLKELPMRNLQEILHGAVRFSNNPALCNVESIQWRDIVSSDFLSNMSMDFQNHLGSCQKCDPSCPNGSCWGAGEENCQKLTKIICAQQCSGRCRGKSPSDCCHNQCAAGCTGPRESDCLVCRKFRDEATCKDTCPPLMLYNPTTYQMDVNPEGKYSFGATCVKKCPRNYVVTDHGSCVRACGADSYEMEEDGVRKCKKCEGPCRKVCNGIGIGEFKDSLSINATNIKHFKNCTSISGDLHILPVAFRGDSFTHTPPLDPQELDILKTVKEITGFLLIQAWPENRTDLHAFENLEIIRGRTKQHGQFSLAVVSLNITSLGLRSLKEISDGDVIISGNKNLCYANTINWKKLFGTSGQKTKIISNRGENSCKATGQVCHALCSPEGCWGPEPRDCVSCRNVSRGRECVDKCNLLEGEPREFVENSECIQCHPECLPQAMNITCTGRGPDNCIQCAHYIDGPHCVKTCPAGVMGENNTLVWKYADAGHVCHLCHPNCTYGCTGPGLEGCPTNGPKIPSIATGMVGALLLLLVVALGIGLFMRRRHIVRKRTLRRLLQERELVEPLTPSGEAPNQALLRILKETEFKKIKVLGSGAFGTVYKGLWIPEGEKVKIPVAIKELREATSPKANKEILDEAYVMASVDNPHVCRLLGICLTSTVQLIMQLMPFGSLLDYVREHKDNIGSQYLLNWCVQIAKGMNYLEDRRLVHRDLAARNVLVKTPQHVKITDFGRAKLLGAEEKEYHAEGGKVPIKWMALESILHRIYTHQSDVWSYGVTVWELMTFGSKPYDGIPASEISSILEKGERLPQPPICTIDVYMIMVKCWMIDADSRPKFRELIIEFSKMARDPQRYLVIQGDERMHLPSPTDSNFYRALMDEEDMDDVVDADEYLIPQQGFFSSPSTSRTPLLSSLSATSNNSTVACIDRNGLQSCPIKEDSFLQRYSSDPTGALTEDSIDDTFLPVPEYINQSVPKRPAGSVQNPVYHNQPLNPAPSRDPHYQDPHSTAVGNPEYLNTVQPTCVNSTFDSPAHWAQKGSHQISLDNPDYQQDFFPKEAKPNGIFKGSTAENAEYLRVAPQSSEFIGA
Sequence of Epidermal growth factor receptor (Homo sapiens, UniProt P00533, L858R/T790M) (P00533 25-1210 T790M/L858R limits assumed): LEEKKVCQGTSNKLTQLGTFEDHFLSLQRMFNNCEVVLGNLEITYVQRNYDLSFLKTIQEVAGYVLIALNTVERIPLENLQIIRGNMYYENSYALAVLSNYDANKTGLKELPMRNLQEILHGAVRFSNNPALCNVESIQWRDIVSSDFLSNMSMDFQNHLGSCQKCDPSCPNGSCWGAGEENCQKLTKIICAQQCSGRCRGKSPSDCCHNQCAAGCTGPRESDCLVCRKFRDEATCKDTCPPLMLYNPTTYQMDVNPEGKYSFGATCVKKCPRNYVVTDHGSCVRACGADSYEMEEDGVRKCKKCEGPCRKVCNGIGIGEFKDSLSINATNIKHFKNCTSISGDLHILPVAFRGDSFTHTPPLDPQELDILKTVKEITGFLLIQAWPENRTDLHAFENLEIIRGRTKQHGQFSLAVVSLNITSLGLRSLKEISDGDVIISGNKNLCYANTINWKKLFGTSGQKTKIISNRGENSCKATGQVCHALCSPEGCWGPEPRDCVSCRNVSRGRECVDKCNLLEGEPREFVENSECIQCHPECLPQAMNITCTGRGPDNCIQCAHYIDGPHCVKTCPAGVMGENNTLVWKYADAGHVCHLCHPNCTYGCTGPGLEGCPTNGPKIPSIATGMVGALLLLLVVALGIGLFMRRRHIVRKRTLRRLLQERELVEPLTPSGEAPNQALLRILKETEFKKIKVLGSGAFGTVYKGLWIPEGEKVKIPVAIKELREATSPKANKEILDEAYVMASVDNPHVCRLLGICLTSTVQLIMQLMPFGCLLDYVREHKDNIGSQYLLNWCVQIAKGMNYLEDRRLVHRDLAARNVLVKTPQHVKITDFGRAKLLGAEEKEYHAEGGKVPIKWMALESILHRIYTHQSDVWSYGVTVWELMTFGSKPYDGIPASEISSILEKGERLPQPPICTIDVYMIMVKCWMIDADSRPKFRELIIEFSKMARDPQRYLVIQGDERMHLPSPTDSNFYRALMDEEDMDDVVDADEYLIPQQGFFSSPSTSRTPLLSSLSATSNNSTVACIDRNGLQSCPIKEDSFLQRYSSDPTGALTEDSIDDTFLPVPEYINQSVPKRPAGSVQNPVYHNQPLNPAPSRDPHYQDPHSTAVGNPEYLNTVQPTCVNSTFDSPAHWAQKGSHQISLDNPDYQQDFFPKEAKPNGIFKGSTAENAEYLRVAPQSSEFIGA
Sequence of Epidermal growth factor receptor (Homo sapiens, UniProt P00533) (P00533 whole entry): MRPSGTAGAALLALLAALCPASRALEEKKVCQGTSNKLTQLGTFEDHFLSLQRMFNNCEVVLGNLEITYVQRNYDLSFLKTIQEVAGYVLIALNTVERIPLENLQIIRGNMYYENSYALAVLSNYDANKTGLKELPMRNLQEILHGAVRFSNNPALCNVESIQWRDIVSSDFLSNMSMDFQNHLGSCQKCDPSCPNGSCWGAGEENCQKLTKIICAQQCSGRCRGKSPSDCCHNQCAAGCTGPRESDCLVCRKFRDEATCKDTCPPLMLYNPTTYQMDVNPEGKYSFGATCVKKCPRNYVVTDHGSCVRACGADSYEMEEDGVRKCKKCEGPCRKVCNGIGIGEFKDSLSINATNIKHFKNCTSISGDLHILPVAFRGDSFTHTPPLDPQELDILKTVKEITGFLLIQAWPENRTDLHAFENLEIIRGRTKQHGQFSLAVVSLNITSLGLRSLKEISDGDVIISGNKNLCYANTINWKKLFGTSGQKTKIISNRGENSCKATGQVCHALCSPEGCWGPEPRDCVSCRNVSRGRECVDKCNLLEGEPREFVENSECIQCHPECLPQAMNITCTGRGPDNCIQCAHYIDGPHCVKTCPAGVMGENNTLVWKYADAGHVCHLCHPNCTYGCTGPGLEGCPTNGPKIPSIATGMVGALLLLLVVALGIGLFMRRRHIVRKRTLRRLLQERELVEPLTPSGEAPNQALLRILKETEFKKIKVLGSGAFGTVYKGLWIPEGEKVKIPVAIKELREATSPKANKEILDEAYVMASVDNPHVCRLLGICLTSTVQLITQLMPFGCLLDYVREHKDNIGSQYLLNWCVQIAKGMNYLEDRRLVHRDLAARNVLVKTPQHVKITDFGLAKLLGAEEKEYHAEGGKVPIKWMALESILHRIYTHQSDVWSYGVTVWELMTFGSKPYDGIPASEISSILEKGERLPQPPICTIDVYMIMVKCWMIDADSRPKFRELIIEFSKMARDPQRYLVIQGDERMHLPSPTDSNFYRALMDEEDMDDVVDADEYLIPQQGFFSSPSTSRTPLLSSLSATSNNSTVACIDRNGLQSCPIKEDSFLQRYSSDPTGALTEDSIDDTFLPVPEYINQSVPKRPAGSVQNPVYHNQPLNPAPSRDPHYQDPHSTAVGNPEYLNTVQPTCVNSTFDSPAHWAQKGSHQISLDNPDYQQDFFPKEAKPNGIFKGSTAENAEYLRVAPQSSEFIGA

As usually defined, the IC50 is the concentration that inhibits the measured activity by half. Read a high IC50 as a need for much substance. Turning to `CC(=O)OC[C@@]1(C)[C@@H]2CC[C@]3(C)[C@H](CC=C4[C@@H]5CC(C)(C)CC[C@]5(C(=O)OCCCCO[N+](=O)[O-])CC[C@]43C)[C@@]2(C)CC[C@@H]1OC(C)=O`, the IC50 in assay [1] came out at 4.6 µM; in assay [2], 5.2 µM; in assay [3], 5.1 µM; in assay [4], 4.8 µM; in [5] it was 5 µM; in assay [6], 0.06 µM. In addition, the IC50 in assay [7] was > 20 µM; in [8], 0.01 µM; in [9], 8.1 µM; in assay [10], 7.6 µM. The result in assay [11] was Active. In addition, the outcome in assay [12] was inactive.
For `CC1(C)CC[C@]2(C(=O)OCCO[N+](=O)[O-])CC[C@]3(C)C(=CC[C@@H]4[C@@]5(C)CC[C@H](O)C(C)(C)[C@@H]5CC[C@]43C)[C@@H]2C1`, the 50% inhibitory concentration (IC50) in assay [1] came to 4.7 µM; in [2], 5.5 µM; in [3], 5 µM; in assay [4], 6.4 µM; in assay [5], 5.5 µM; in assay [6], 0.11 µM. In addition, the IC50 in [7] was > 20 µM; in assay [8], 0.03 µM; in [9], > 10 µM; in assay [10] it was > 10 µM. For the same compound, the outcome in assay [11] was Active.
`CC(=O)O[C@H]1CC[C@]2(C)[C@H]3CC=C4[C@@H]5CC(C)(C)CC[C@]5(C(=O)OCCCCO[N+](=O)[O-])CC[C@@]4(C)[C@]3(C)CC[C@H]2C1(C)C`: the IC50 in assay [1] amounted to 4.8 µM; in assay [2] it was 5.4 µM; in assay [3], 5.3 µM; in assay [4], 5.1 µM; in assay [5], 5.2 µM; in assay [6], 0.1 µM. For the same compound, the IC50 in assay [7] is > 20 µM; in [8], 0.02 µM; in assay [9], > 10 µM; in assay [10] it was > 10 µM. The outcome in assay [11] was Active. For the same compound, in assay [12], the outcome was inactive.
